These results are taken from patent US8574645B2, “Antimicrobial composition” (DSM IP Assets B.V., priority 2004, dated 2013).

In one data set the test system is yeast and mould. Put plainly: Outgrowth of yeast and mould in or on food products. It is filed as cell-based.
The test system of a further data set is Listeria innocua LM35. Put plainly: Antibacterial activity in inoculated cottage cheese, viable cell enumeration. It is filed as cell-based. The conditions noted are these: for Log CFU/g of L. innocua: nisin 0.00 ppm, cottage cheese, 4-7° C. How it is done:
This example describes the antibacterial activity of nisin (1.25 and 2.5 ppm) in cottage cheese, in presence of low natamycin concentration. Cottage cheese was prepared as described above. After adding the dressing to the dry curd, the cottage cheese was inoculated with yeasts, fungal cells and cells of Listeria innocua LM35. Following the artificial contamination, the cottage cheese was added with two nisin concentrations 1.25 and 2.5 ppm and/or in combination with natamycin at the concentration 2.5 or 5 ppm. The antibacterial activity of nisin against L. innocua was evaluated after 3 and 6 weeks of incubation at 4° C. through the enumeration of the viable cells in the inoculated samples, in presence or not of preservatives. The number of viable bacterial cells was also determined in a negative sample, non inoculated cottage cheese without preservatives and in a positive control, sample artificially contaminated with bacteria.

For the next data set, the system named is most food born fungi. To be noted: cited from earlier work.
The format of data set [1] is physicochemical. As to the method: Cottage cheese was prepared following the standard procedure for cottage cheese making. The dry curd was obtained by addition of a starter culture to pasteurized skim milk. After acidification till pH 4.4 the curd was pasteurized and rinsed with water. The dry curd was mixed with the dressing at the ratio 66% curd and […]. Before mixing the curd and the dressing, the preservatives Delvocid® and Delvoplus® were added to the dressing. The preservative concentrations in the end products were 2.5 and 5 ppm of natamycin (5 and 10 ppm of Delvocid®) and 1.25 and 2.5 ppm of nisin (50 and 100 ppm of Delvoplus®). The moisture content of cottage cheese (dry curd mixed with the dressing) was 82%.
The procedure described in the International IDF (International Dairy Federation) Standard 140A:1992 for cheese was used to determine the concentration of natamycin in the cottage cheese samples. In total 12 different samples were analysed in triplicate. The remaining percentage of natamycin was calculated using the average of the triplicate. […] After 6 weeks of storage at refrigerated temperature, the average stability of natamycin in cottage cheese was of 92%.

In data set [2] the test system is Penicillium roqueforti CBS 304.97. Put plainly: Antifungal activity in inoculated cottage cheese, viable cell enumeration. It is filed as cell-based. The conditions noted are these: for Log spores/g of P. roqueforti: nisin 0.00 ppm, cottage cheese, 4-7° C. How it is done:
(§1) This example describes the antifungal activity of low natamycin concentration (2.5 and 5 ppm) in cottage cheese, in presence of nisin. Cottage cheese was prepared as described above. After adding the dressing to the dry curd, the cottage cheese was inoculated with yeasts and fungal cells, Kluyveromyces marxianus CBS 1557 and Penicillium roqueforti CBS 304.97, respectively. Following the artificial contamination, natamycin and/or nisin was added to the cottage cheese at two different concentrations, 2.5 and 5 ppm for natamycin and 1.25 and 2.50 ppm for nisin. The antifungal activity of natamycin against the yeast and the mould cells was evaluated after 3 and 6 weeks of incubation at 4° C. through the enumeration of the viable cells in the inoculated samples, in presence or not of preservatives. The number of viable yeast of fungal cells was also determined in a negative sample, non inoculated cottage cheese without preservatives and in a positive control, sample artificially contaminated with yeast and fungal cells without preservative.

Data set [3] has as its system Kluyveromyces marxianus CBS 1557. Described as above. The data set is classed as cell-based. To be noted: for Log CFU/g of K. marxianus: nisin 0.00 ppm, cottage cheese, 4-7° C. As to the method:
as §1

A further data set relates to Gram positive bacteria. Put plainly: Outgrowth of Gram positive bacteria at the surface of food products. The conditions noted are these: applied at the surface of product, 0.0001 and 1 ppm nisin. It is filed as cell-based.
[4] abbreviates: natamycin at 2.5 or 5 ppm in cottage cheese, up to 6 weeks.

Read-outs that look alike come from different tables or passages of the source.

Regarding `C[C@@H]1C/C=C/C=C/C=C/C=C/[C@H](O[C@@H]2O[C@H](C)[C@@H](O)[C@H](N)[C@@H]2O)C[C@@H]2O[C@](O)(C[C@@H](O)C[C@H]3O[C@@H]3/C=C/C(=O)O1)C[C@H](O)[C@H]2C(=O)O` [natamycin], the “Effectiveness against yeast and mould” value is reported as “extremely effective” in the data set on yeast and mould (applied at the surface of product, 0.01 to 10 ppm natamycin); “extremely effective” with yeast and mould (introduced into foodstuffs at concentrations whereby almost no crystal or solid form is present, ranging from 120 ppm based on water content). In addition, the “Log CFU/g of L. innocua” value is reported as 1.90 Log CFU/g with Listeria innocua LM35 (natamycin 2.50 ppm, 0 week); 2.50 Log CFU/g in the data set with Listeria innocua LM35 (natamycin 2.50 ppm, 3 weeks); 4.50 Log CFU/g in the data set with Listeria innocua LM35 (natamycin 2.50 ppm, 6 weeks); 1.90 Log CFU/g in the data set on Listeria innocua LM35 (natamycin 5.00 ppm, 0 week); 1.90 Log CFU/g in the data set with Listeria innocua LM35 (natamycin 5.00 ppm, 3 weeks); 4.70 Log CFU/g in the data set on Listeria innocua LM35 (natamycin 5.00 ppm, 6 weeks). In the data set on most food born fungi, the “MIC (Minimal Inhibition Concentration)” value is listed as “less than 10 ppm”. Besides, in data set [1], the “Stability of dissolved natamycin in water-containing product” value was “stable”. Besides, the “Stability of natamycin in cottage cheese” value in data set [1] was “stable”. The “Remaining percentage of natamycin” value in data set [1] (0 h) is 100%. In addition, the “Remaining percentage of natamycin, Average” value amounted to 100% in data set [1] (0 h), 98% in data set [1] (504 h) and 92% in data set [1] (1008 h). Further, the “Log spores/g of P. roqueforti” value is listed as 1.70 Log spores/g in data set [2] (natamycin 2.50 ppm, 0 week); 1.70 Log spores/g in data set [2] (natamycin 2.50 ppm, 3 weeks); less than 1.00 Log spores/g in data set [2] (natamycin 2.50 ppm, 6 weeks); 1.60 Log spores/g in data set [2] (natamycin 5.00 ppm, 0 week); less than 1.00 Log spores/g in data set [2] (natamycin 5.00 ppm, 3 weeks); less than 1.00 Log spores/g in data set [2] (natamycin 5.00 ppm, 6 weeks). Also, in data set [2] (setting [4]), the “Prevention of growth of P. roqueforti” value is listed as “effective in preventing the growth”. In addition, the “Log CFU/g of K. marxianus” value in data set [3] (natamycin 2.50 ppm, 0 week) is reported as 1.70 Log CFU/g; in data set [3] (natamycin 2.50 ppm, 3 weeks), 1.70 Log CFU/g; in data set [3] (natamycin 2.50 ppm, 6 weeks) it was less than 1.00 Log CFU/g; in data set [3] (natamycin 5.00 ppm, 0 week) it was 1.30 Log CFU/g; in data set [3] (natamycin 5.00 ppm, 3 weeks) it was less than 1.00 Log CFU/g; in data set [3] (natamycin 5.00 ppm, 6 weeks), less than 1.00 Log CFU/g. Moreover, the “Prevention of growth of K. marxianus” value in data set [3] (setting [4]) is “effective in preventing the growth”.

In the case of nisin, the “Inhibition of growth of L. innocua” value in the data set with Listeria innocua LM35 (nisin 1.25 and 2.5 ppm in cottage cheese, in presence or not of natamycin) is reported as “inhibited the growth”. The “Effectiveness against Gram positive bacteria” value in the data set with Gram positive bacteria was “extremely effective”.
